Read-outs that look alike come from different tables or passages of the source.
Assays:
[1] = test system: photoreceptors; parameters: method as in PMID 23723389; conditions: rat retinal neuronal cultures; by activating RXRs; cited from earlier work
[2] = test system: COX-2; parameters: method as in PMID 22765297, PMID 24005906; conditions: COX-2 signaling cascade; cited from earlier work
[3] = parameters: method as in PMID 35250585; conditions: once-daily intragastric administration; mice; cited from earlier work
[4] = Biodisposition of JV-DE1 and JV-MD2 delivered via NIODP (periorbital skin) in non-human primates; format: in vivo, cynomolgus monkeys; conditions: for % Administered Dose, Retina: endogenous DHA subtracted; for Cmax / concentration at 0.5 h / concentration at 24 h / concentration at 3 h / concentration at 6 h: cynomolgus monkey, topical
Experimental: All experiments were performed at Medicilon. […] A pen brush was used to dose each formulation with three to four circular motions for even distribution. The doses of the test articles were selected based on their solubility/concentration with the maximum deliverable volume on the periorbital skin of the animals. The administered dose was calculated by the weight difference of the pen brush before and after administration. Animals were restrained from eye rubbing in restraint chairs for 2 h after dosing, with access to food and drink. A blood sample was collected from one of the study animals at pre-dosing. For every time point of 0.5, 3, 6, and 24 h post-dose, one animal was euthanized and the ocular tissues (upper eyelid, cornea, retina, and vitreous humor) of both eyes were collected. Plasma samples were collected before each euthanization.
For the convenience of tissue processing and sample extraction, only upper eyelids were collected to represent the entirety of the periorbital tissue. Ocular tissues were homogenized by adding a 9-fold volume of 50% methanol/H2O per gram of tissue. For the LC-MS/MS sample preparation, a 50 μL aliquot of plasma, aqueous humor, vitreous humor, or tissue homogenate was thoroughly mixed with a 250 μL extraction solution of CHCl3/EtOH (1:1); then, a 210 μL supernatant of the samples was transferred to a 96-well plate after centrifugation. The samples were evaporated in nitrogen gas (N2) until dried. Each sample was redissolved in 200 μL MeOH, of which 2 µL was injected for the LC-MS/MS analysis.
The LC system was the same as that described in Section 2. The MS analysis was performed using a Triple Quad 5500 with an ESI ion source, and the data acquisition and control system were Analyst 1.6.3 software from Applied Biosystems/MDS Sciex.
The LC/MS conditions for JV-DE1 are described in Supplementary Table S2. The LC conditions were as follows: ACQUITY UPLC ® BEH C18 1.7 μm, 2.1 mm × 50 mm; the mobile phase Column A, 0.1% formic acid in water; and Column B, 0.1% formic acid in acetonitrile. The flow rate was 0.6 ml/min, the column temperature was 50 °C, and the injection volume was 2 µL. The MS conditions were as follows: scan type, positive MRM; ion source, turbo spray; ionization model, ESI; nebulizer gas 1, 55 psi; gas 2, 55 psi; curtain gas, 40 psi; CAD, 10; ionspray voltage, 5500 V; and temperature, 550 °C.
The LC/MS conditions for JV-MD2 (DHA) are described in Supplementary Table S3. The LC conditions were as follows: ACQUITY UPLC® BEH C18 1.7 μm, 2.1 mm × 50 mm; the mobile phase Column A, […] NH4AC in H2O; and Column B, CAN. The flow rate was 0.5 mL/min, the column temperature was 40 °C, and the injection volume was 4 µL. The MS conditions were as follows: scan type, negative MRM; ion source, turbo spray; ionization model, ESI; nebulizer gas 1, 55 psi; gas 2, 55 psi; curtain gas, 40 psi; CAD, 9; ionspray voltage, 5500 V; and temperature, 550 °C.

[5] = JV-MD2, monkey, NIODP OS, 6568 μg/eye, 0.5 h
[6] = JV-MD2, monkey, NIODP OS, 6747 μg/eye, 24 h
[7] = JV-MD2, monkey, NIODP OS, 6768 μg/eye, 3 h
[8] = JV-MD2, monkey, NIODP OS, 7018 μg/eye, 6 h
[9] = JV-MD2, monkey, NIODP, within 30 min of dosing

- concentration in vitreous humor ([4]; JV-MD2, monkey, NIODP 6775 µg/eye, all timepoints except 24 h, LLOQ 0.5 µg/mL): below BLQ
- % Administered Dose, Cornea [4, 5]: 0.0283%
- % Administered Dose, Eyelid/periorbital skin [4, 5]: 0.4288%
- % Administered Dose, Vitreous humor [4, 5]: 0.0000%
- % Administered Dose, Retina [4, 5]: 0.0343%
- % Administered Dose, Cornea [4, 6]: 0.0173%
- % Administered Dose, Eyelid/periorbital skin [4, 6]: 0.0197%
- % Administered Dose, Vitreous humor [4, 6]: 0.0236%
- % Administered Dose, Retina [4, 6]: 0.0175%
- % Administered Dose, Cornea [4, 7]: 0.0109%
- % Administered Dose, Eyelid/periorbital skin [4, 7]: 0.3844%
- % Administered Dose, Vitreous humor [4, 7]: 0.0000%
- % Administered Dose, Retina [4, 7]: 0.0264%
- % Administered Dose, Cornea [4, 8]: 0.0149%
- % Administered Dose, Eyelid/periorbital skin [4, 8]: 0.0149%
- % Administered Dose, Vitreous humor [4, 8]: 0.0000%
- % Administered Dose, Retina [4, 8]: 0.0228%
- maximum percentage of the administered dose, cornea [4, 9]: 0.0283%
- maximum percentage of the administered dose, eyelid/periorbital skin [4, 9]: 0.4288%
- maximum percentage of the administered dose, retina [4, 9]: 0.0343%
- Cmax ([4]; cornea, JV-MD2, monkey, single dose about 7 mg via NIODP, read-out: Cmax in cornea): 66000 ng/g
- Cmax ([4]; retina, JV-MD2, NHP, about 7 mg/eye via NIODP, read-out: retinal Cmax): ~338 µM
- Cmax ([4]; retina, JV-MD2, monkey, single dose about 7 mg (6775 µg/eye) via NIODP, endogenous level 17 µg/g, read-out: Cmax in retina): 111000 ng/g
- concentration at 0.5 h ([4]; cynomolgus, cornea of the dosed left eye (OS), JV-MD2, monkey, NIODP OS, 6568 μg/eye, 0.5 h, endogenous BLQ, read-out: Drug in OS Tissues, Cornea): 66000 ng/g
- concentration at 24 h ([4]; cynomolgus, cornea of the dosed left eye (OS), JV-MD2, monkey, NIODP OS, 6747 μg/eye, 24 h, endogenous BLQ, read-out: Drug in OS Tissues, Cornea): 26000 ng/g
- concentration at 3 h ([4]; cynomolgus, cornea of the dosed left eye (OS), JV-MD2, monkey, NIODP OS, 6768 μg/eye, 3 h, endogenous BLQ, read-out: Drug in OS Tissues, Cornea): 22000 ng/g
- concentration at 6 h ([4]; cynomolgus, cornea of the dosed left eye (OS), JV-MD2, monkey, NIODP OS, 7018 μg/eye, 6 h, endogenous BLQ, read-out: Drug in OS Tissues, Cornea): 22000 ng/g
- concentration at 0.5 h ([4]; cynomolgus, plasma, JV-MD2 21.5% w/w, monkey, NIODP periorbital skin OS, 6568 μg/eye, 0.5 h, pre-dose baseline 2, read-out: Drug in plasma): 2000 ng/mL
- concentration at 24 h ([4]; cynomolgus, plasma, JV-MD2 21.5% w/w, monkey, NIODP periorbital skin OS, 6747 μg/eye, 24 h, pre-dose baseline 2, read-out: Drug in plasma): 1000 ng/mL
- concentration at 3 h ([4]; cynomolgus, plasma, JV-MD2 21.5% w/w, monkey, NIODP periorbital skin OS, 6768 μg/eye, 3 h, pre-dose baseline 2, read-out: Drug in plasma): 3000 ng/mL
- concentration at 6 h ([4]; cynomolgus, plasma, JV-MD2 21.5% w/w, monkey, NIODP periorbital skin OS, 7018 μg/eye, 6 h, pre-dose baseline 2, read-out: Drug in plasma): 2000 ng/mL
- Cmax ([4]; cynomolgus, retina, 6775 µg per eye, JV-MD2, NHP, about 7 mg/eye via NIODP, read-out: retinal Cmax): 338 µM
- concentration at 0.5 h ([4]; cynomolgus, retina, JV-MD2, monkey, NIODP OS, 6568 μg/eye, 0.5 h, endogenous DHA 17 µg/g, read-out: Drug in OS Tissues, Retina): 111000 ng/g
- concentration at 24 h ([4]; cynomolgus, retina, JV-MD2, monkey, NIODP OS, 6747 μg/eye, 24 h, endogenous DHA 17 µg/g, read-out: Drug in OS Tissues, Retina): 47000 ng/g
- concentration at 3 h ([4]; cynomolgus, retina, JV-MD2, monkey, NIODP OS, 6768 μg/eye, 3 h, endogenous DHA 17 µg/g, read-out: Drug in OS Tissues, Retina): 67000 ng/g
- concentration at 6 h ([4]; cynomolgus, retina, JV-MD2, monkey, NIODP OS, 7018 μg/eye, 6 h, endogenous DHA 17 µg/g, read-out: Drug in OS Tissues, Retina): 79000 ng/g
- concentration at 0.5 h ([4]; cynomolgus, upper eyelid (periorbital skin) of the dosed left eye (OS), JV-MD2, monkey, NIODP OS, 6568 μg/eye, 0.5 h, endogenous BLQ, read-out: Drug in OS Tissues, Eyelid/periorbital skin): 381000 ng/g
- concentration at 24 h ([4]; cynomolgus, upper eyelid (periorbital skin) of the dosed left eye (OS), JV-MD2, monkey, NIODP OS, 6747 μg/eye, 24 h, endogenous BLQ, read-out: Drug in OS Tissues, Eyelid/periorbital skin): 16000 ng/g
- concentration at 3 h ([4]; cynomolgus, upper eyelid (periorbital skin) of the dosed left eye (OS), JV-MD2, monkey, NIODP OS, 6768 μg/eye, 3 h, endogenous BLQ, read-out: Drug in OS Tissues, Eyelid/periorbital skin): 420000 ng/g
- concentration at 6 h ([4]; cynomolgus, upper eyelid (periorbital skin) of the dosed left eye (OS), JV-MD2, monkey, NIODP OS, 7018 μg/eye, 6 h, endogenous BLQ, read-out: Drug in OS Tissues, Eyelid/periorbital skin): 11000 ng/g
- concentration at 24 h ([4]; cynomolgus, vitreous humor, 6775 µg per eye, JV-MD2, monkey, NIODP 6775 µg/eye, 24 h post-dose, read-out: concentration in vitreous humor): 2000 ng/mL
- concentration at 0.5 h ([4]; cynomolgus, vitreous humor, JV-MD2, monkey, NIODP OS, 6568 μg/eye, 0.5 h, BLQ given a value of 0, LLOQ 0.5 µg/mL, read-out: Drug in OS Tissues, Vitreous humor): 0 ng/g
- concentration at 24 h ([4]; cynomolgus, vitreous humor, JV-MD2, monkey, NIODP OS, 6747 μg/eye, 24 h, read-out: Drug in OS Tissues, Vitreous humor): 2000 ng/g
- concentration at 3 h ([4]; cynomolgus, vitreous humor, JV-MD2, monkey, NIODP OS, 6768 μg/eye, 3 h, BLQ given a value of 0, LLOQ 0.5 µg/mL, read-out: Drug in OS Tissues, Vitreous humor): 0 ng/g
- concentration at 6 h ([4]; cynomolgus, vitreous humor, JV-MD2, monkey, NIODP OS, 7018 μg/eye, 6 h, BLQ given a value of 0, LLOQ 0.5 µg/mL, read-out: Drug in OS Tissues, Vitreous humor): 0 ng/g
SMILES: CC/C=C\C/C=C\C/C=C\C/C=C\C/C=C\C/C=C\CCC(=O)O [JV-MD2, cis-4,7,10,13,16,19-docosahexaenoic acid]
- protective effect on photoreceptors [1]: induced a protective effect
- IC50 [2]: 18 µM
- laser-induced CNV formation [3]: effectively inhibited laser-induced CNV formation

— PMC10535219, “Discovery and Potential Utility of a Novel Non-Invasive Ocular Delivery Platform” (Pharmaceutics, 2023)
